Assay results as given in patent US9216183B2, “Topical treatment for chemotherapy induced eyelash loss or hypotrichosis using prostamide F2 alpha agonists” (ALLERGAN, INC., priority 2002, dated 2015).
Where “and” joins values, the source holds several entries; their conditions need not be identical. Equal entries are not always repeated.

Experiments:
[1] = Safety (adverse events, IOP), chemotherapy-induced hypotrichosis subpopulation; assay type: in vivo, human
Protocol: Safety measures included adverse events (AEs), ophthalmic examination (ophthalmoscopy [dilated], biomicroscopy, IOP, iris color assessment, and BCVA). AEs were monitored throughout the study by the investigator.
The 12-month data were the primary focus of the safety evaluation. Safety data were summarized with descriptive statistics (n, or frequency distributions [counts or percentages]). Biomicroscopic examinations and assessments of iris color, IOP, and BCVA were performed for each subject at screening/baseline and months 1, 2, 4, 6, 8, and 12 (or early termination prior to month 12); ophthalmoscopic examinations (dilated) were performed at screening/baseline and months 6 and 12 (or early termination prior to month 12). Two IOP measurements were taken for each eye at each visit; a third measurement was taken if the difference between the first 2 measurements was more than 2 mm Hg. The average or median IOP was determined in the event that 2 or 3 measurements were made, respectively. The IOP value analyzed at each visit was the average IOP of the subject's 2 eyes. Change and percent change from baseline in IOP were summarized by descriptive statistics. Between-group comparison will be performed using the 1-way analysis of variance.

[2] = tested on: eyelashes of subjects with chemotherapy-induced hypotrichosis; assay: GEA / ESQ Domain 2 responder analysis, 1-year clinical study, chemotherapy-induced hypotrichosis; assay type: in vivo, human
Source text: The full 12-month study consisted of 2 distinct 6-month treatment periods, treatment period 1 (TP1) and treatment period 2 (TP2). Eligible post-chemotherapy subjects were randomly assigned in a 3:1 ratio to receive bimatoprost or vehicle for TP1. In TP2, the subjects were either maintained on or switched to bimatoprost treatment. The primary efficacy endpoint was the proportion of treatment responders at month 4 based on a composite endpoint, defined by: a) at least a 1-grade improvement from baseline in the GEA score, and b) at least a 3-point improvement from baseline in the total score for Domain 2 of the ESQ. The GEA is an investigator assessment of eyelash prominence and the ESQ score is patients own perception of their eyelashes. A one-year, multicenter, randomized, double-masked, vehicle-controlled study. Adult post-chemotherapy and idiopathic eyelash hypotrichosis subjects were enrolled based on their score of 1 or 2 on a four point ordinal Global Eyelash Assessment (GEA) scale, and in addition having a low score on a PRO measure associated with 'psychological impact' of the condition, a domain-2 of the Eyelash Satisfaction Questionnaire (ESQ). The study involved two treatment periods of six months each. In the first treatment period, subjects for both populations were randomized 3:1 for QD bimatoprost: vehicle treatment. In the second 6-month treatment period, all subjects were moved to bimatoprost treatment, except for a group of bimatoprost treated idiopathic hypotrichosis subjects (n=55) who were switched to vehicle to investigate the effect of drug discontinuation. The study included 9 visits over the 12-month treatment period. The primary end point was the proportion of responders within each treatment group based on a composite measure of GEA and ESQ Domain-2 (investigator assessed eyelash prominence and subject's assessment of 'psychological impact' related to eyelashes) at month-4. This multicenter, double-masked, randomized, parallel-group study included two 6-month treatment periods. Subjects with idiopathic hypotrichosis were randomized to 3 treatment groups: 1) treatment period 1 (TP1) and TP2: bimatoprost; 2) TP1: bimatoprost; TP2: vehicle; and 3) TP1: vehicle; TP2: bimatoprost. Subjects with chemotherapy-induced hypotrichosis were randomized to 2 treatment groups: 1) TP1: bimatoprost or vehicle; and 2) TP2: bimatoprost. The primary endpoint was a composite of at least a 1-grade improvement in investigator-assessed Global Eyelash Assessment (GEA), and at least a 3-point improvement in subject-reported Eyelash Satisfaction Questionnaire (ESQ) Domain 2 (self-perceived confidence, attractiveness, and professionalism) at month 4. Secondary measures included digitally assessed eyelash characteristics (i.e., eyelash length, fullness, and darkness). Idiopathic hypotrichosis subjects were randomized to 3 treatment arms in a 2:1:1 ratio: bimatoprost during both treatment periods; vehicle in TP1 and bimatoprost in TP2; and bimatoprost in TP1 and vehicle in TP2. Chemotherapy-induced hypotrichosis subjects were randomized in a 3:1 ratio to receive bimatoprost during both treatment periods or vehicle in TP1 followed by bimatoprost in TP2. Male or female subjects at least 18 years of age who met these criteria were eligible for inclusion in the study: a score of 1 or 2 on the clinician-graded global eyelash assessment (“GEA”); a score of 1 (very much disagree) or 2 (disagree) on each of 3 items (16 [confidence], 19 [attractiveness], and 18 [professionalism]) on the subject-assessed eyelash satisfaction questionnaire (“esq”); best-corrected visual acuity (“bcva”) score equivalent to a […] acuity of 20/100 or better in each eye; and intraocular pressure (“iop”) 20 mm hg or less in each eye. […]

[3] = chemotherapy-induced, 0 to 6 Months (N = 96)
[4] = chemotherapy-induced, 0 to 12 Months (N = 96)
[5] = chemotherapy-induced, 6 to 12 Months (N = 89)
[6] = postchemotherapy, first 6-month study period
[7] = postchemotherapy, first 6 months, N = 96
[8] = postchemotherapy, Month 4, listed as Bimatoprost
[9] = postchemotherapy, Month 4, listed as bimatoprost
[10] = postchemotherapy, Month 12, bimatoprost throughout

## CCNC(=O)CCC/C=C\C[C@@H]1[C@@H](/C=C/[C@@H](O)CCc2ccccc2)[C@H](O)C[C@@H]1O [Bim 0.03%, bimatoprost]
[1]; [3]
  Conjunctival hyperaemia: 15.6%
  Erythema of eyelid: 1.0%
  Eye pruritus: 5.2%
  Eyelids pruritus: 3.1%
  Punctate keratitis: 8.3%
  Skin hyperpigmentation: 3.1%
[1]; [4]
  Conjunctival hyperaemia: 16.7%
  Erythema of eyelid: 3.1%
  Eye pruritus: 6.3%
  Eyelids pruritus: 3.1%
  Punctate keratitis: 9.4%
  Skin hyperpigmentation: 5.2%
[1]; chemotherapy-induced, 2-month visit, IOP measured in mm Hg
  Mean change from baseline in IOP: −1.22
[1]; [5]
  Conjunctival hyperaemia: 1.1%
  Erythema of eyelid: 2.2%
  Eye pruritus: 1.1%
  Eyelids pruritus: 1.1%
  Punctate keratitis: 1.1%
  Skin hyperpigmentation: 2.2%
[1]; [6]
  Subjects reporting at least 1 adverse event: 57.3%
  Subjects reporting treatment-related adverse events: 27.1%
[1]; postchemotherapy, first 6 months
  Treatment-related adverse events reported as severe: None
[1]; [7]
  Treatment-related conjunctival hyperaemia: 12 subjects
  Treatment-related eye pruritus: 3 subjects
  Treatment-related eyelid irritation: 2 subjects
  Treatment-related eyelids pruritus: 3 subjects
  Treatment-related punctate keratitis: 7 subjects
  Treatment-related skin hyperpigmentation: 3 subjects
[2]; chemotherapy-induced hypotrichosis, duration of the trial
  GEA response rate (FIG. 9): about 80%
[2]; postchemotherapy, Month 1
  Primary composite endpoint responders (≧1-grade GEA and ≧3-point ESQ Domain 2 improvement): (6.3%)
[2]; postchemotherapy, Month 2
  Primary composite endpoint responders (≧1-grade GEA and ≧3-point ESQ Domain 2 improvement): (22.9%)
[2]; postchemotherapy, Month 4
  Responders with ≧1-grade increase in GEA score: 72.9%
  Responders with ≧2-grade increase in GEA score: 36.5%
  Responders with ≧3-point increase in ESQ Domain 2: 40.6%
[2]; [8]
  Primary composite endpoint responders (≧1-grade GEA and ≧3-point ESQ Domain 2 improvement): 37.5%
  Responders with ≧1-grade increase in GEA score: 72.9%
[2]; [9]
  Primary composite endpoint responders (≧1-grade GEA and ≧3-point ESQ Domain 2 improvement): 37.5%
  Responders with ≧1-grade increase in GEA score: > 70% and 72.9%
[2]; postchemotherapy, Month 4, listed as bimatoprost 0.03%
  Primary composite endpoint responders (≧1-grade GEA and ≧3-point ESQ Domain 2 improvement): 37.5%
[2]; postchemotherapy, Month 6
  Responders with ≧1-grade increase in GEA score: 80.2%
  Responders with ≧2-grade increase in GEA score: 45.8%
  Responders with ≧3-point increase in ESQ Domain 2: 47.9%
[2]; postchemotherapy, Month 6, listed as Bim/Bim
  Primary composite endpoint responders (≧1-grade GEA and ≧3-point ESQ Domain 2 improvement): 46.9%
[2]; postchemotherapy, Month 6, listed as Bimatoprost
  Primary composite endpoint responders (≧1-grade GEA and ≧3-point ESQ Domain 2 improvement): 46.9%
[2]; postchemotherapy, Month 6, listed as bimatoprost
  Primary composite endpoint responders (≧1-grade GEA and ≧3-point ESQ Domain 2 improvement): 46.9%
[2]; postchemotherapy, Month 10, Veh/Bim (4 months after starting bimatoprost)
  Responders with ≧2-grade increase in GEA score: 50%
[2]; postchemotherapy, Month 10, bimatoprost throughout
  Primary composite endpoint responders (≧1-grade GEA and ≧3-point ESQ Domain 2 improvement): 54.2%
[2]; postchemotherapy, Month 12, Veh/Bim
  Responders with ≧2-grade increase in GEA score: 52.9%
[2]; postchemotherapy, Month 12, bimatoprost for 12 months (Bim/Bim)
  Primary composite endpoint responders (≧1-grade GEA and ≧3-point ESQ Domain 2 improvement): 61.5%
[2]; [10]
  Responders with ≧1-grade increase in GEA score: 90.6%
  Responders with ≧3-point increase in ESQ Domain 2: 63.5%
[2]; postchemotherapy, Month 12, bimatoprost up to 12 months
  Responders with ≧2-grade increase in GEA score: 57.3%
[2]; postchemotherapy, Month 12, vehicle first 6 months then bimatoprost (Veh/Bim)
  Primary composite endpoint responders (≧1-grade GEA and ≧3-point ESQ Domain 2 improvement): 67.6%
[2]; postchemotherapy, visit not stated (months 4 and 6 discussed)
  ESQ Domain 2 mean change in total score from baseline: 2.8
